Assay results taken from article PMC12390684 (Viruses, 2025).
“And” between values parts separate entries of the source, which are not always exact repeats. Identical values can stand only once. Like-named read-outs stand apart in the source and are kept apart here.

How the values were obtained:
[1] = Cytotoxicity (CellTiter 96 AQueous); type: cell-based; conditions: human
[2] = biological target: IN-GCN2 interaction (6xHis-IN / GST-GCN2) (UniProt P04585+Q9P2K8); assay: biochemical; type: binding, HIV-1 IN; human GCN2; conditions: for IC50: IC50, inhibition of IN-GCN2 interaction; for IN-GCN2 interaction (%): screen, single dose 100 µM, single replicate, residual AlphaLISA signal normalized to DMSO control
Chain of IN-GCN2 interaction (6xHis-IN / GST-GCN2) (Q9P2K8 192-1024, other chains not shown): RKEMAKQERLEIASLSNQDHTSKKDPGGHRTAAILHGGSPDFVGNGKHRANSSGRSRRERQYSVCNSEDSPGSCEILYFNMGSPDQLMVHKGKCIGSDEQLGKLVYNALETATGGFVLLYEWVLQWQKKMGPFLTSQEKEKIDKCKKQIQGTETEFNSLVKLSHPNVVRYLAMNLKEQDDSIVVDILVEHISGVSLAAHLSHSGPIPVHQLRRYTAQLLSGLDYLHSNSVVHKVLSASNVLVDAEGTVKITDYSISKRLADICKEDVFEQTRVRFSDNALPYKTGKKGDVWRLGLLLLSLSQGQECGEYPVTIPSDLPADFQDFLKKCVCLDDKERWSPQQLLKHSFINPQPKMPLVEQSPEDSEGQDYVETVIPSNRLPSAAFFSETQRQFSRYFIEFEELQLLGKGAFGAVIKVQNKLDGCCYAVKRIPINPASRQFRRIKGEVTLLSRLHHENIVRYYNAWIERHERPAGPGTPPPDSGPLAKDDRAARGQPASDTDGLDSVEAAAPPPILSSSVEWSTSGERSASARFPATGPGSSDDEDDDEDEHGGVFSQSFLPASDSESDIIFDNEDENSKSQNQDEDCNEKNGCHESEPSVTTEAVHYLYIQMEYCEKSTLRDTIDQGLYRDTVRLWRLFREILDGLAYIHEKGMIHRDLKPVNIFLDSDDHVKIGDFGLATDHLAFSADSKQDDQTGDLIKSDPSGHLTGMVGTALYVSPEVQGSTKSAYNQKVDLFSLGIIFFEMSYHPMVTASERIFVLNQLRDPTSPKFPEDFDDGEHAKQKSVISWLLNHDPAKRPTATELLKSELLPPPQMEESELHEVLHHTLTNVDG

HIV-1Laï = assay: microbe, parasite or virus in culture; type: cell-based; conditions: for EC50: 24 h infection, read-out: EC50; for SI (CC50/EC50): selectivity index
[3] = SAR study, fresh dilutions from powder, at least three independent experiments
[4] = Human immunodeficiency virus 1, MAGI, 24 h
[5] = P4 MAGI CCR5+ cells, 24 h, read-out: CC50

Row | SMILES | IC50 [2, 3] | CC50 ([1]; 24 h, read-out: CC50) [µM] | CC50 at 24 h [1, 5] [µM] | also measured
1 | CC(=O)[C@]1(O)Cc2c(O)c3c(c(O)c2[C@@H](O[C@H]2C[C@H](N)[C@H](O)[C@H](C)O2)C1)C(=O)c1c(O)cccc1C3=O [Compound 1d] | – | – | – | CC50 [1]: 0.04 µM
2 | CCCCCC1=C/C(=C/c2[nH]c(-c3ccc[nH]3)cc2OC)N=C1C [NSC47147, prodigiosin] | – | – | – | IC50 ([2]; plated compounds of the screen, dose-response (Figure 1B), n = 9): 0.88 µM; IN-GCN2 interaction (%) [2]: 6.31%; CC50 at 24 h ([1]; 24 h, read-out: CC50): 1.96 µM; nontoxic concentrations at which a proviral effect was seen (HIV-1Laï; Figure S5): < 200 nM
3 | COc1cc2c(c(OC)c1OC)CC1c3c(cc4c(c3-2)OCO4)CCN1C (stereo not shown) [Compound 3c] | 54 µM | – | – | fold decrease in activity compared to NSC785155 ([2]; IC50 ratio): 10 fold; CC50 at 24 h [1]: > 5 µM
4 | CCC1(O)CC(OC2CC(N(C)C)C(OC3CC4OC5CC(=O)C(C)OC5OC4C(C)O3)C(C)O2)c2c(cc3c(c2O)C(=O)c2c(O)ccc(O)c2C3=O)C1C(=O)OC (stereo not shown) [Compound 1a, cinerubin B] | – | > 5 | – | EC50 (HIV-1Laï; Human immunodeficiency virus 1, MAGI): 0.494 µM
5 | COc1cccc2c1C(=O)c1c(O)c3c(c(O)c1C2=O)CC(O)(C(C)=O)CC3OC1CC(N)C(OC2CC(O)C(O)C(C)O2)C(C)O1 (stereo not shown) [Compound 1h] | 6.5 µM | – | – | CC50 at 24 h [1]: > 5 µM; EC50 (HIV-1Laï; [4]): 1.66 µM; SI (CC50/EC50) (HIV-1Laï): >3
6 | CCCCCCCC(=O)OCC(=O)C1(O)Cc2c(O)c3c(c(O)c2C(OC2CC(N)C(O)C(C)O2)C1)C(=O)c1c(OC)cccc1C3=O (stereo not shown) [Compound 1g, adriamycin octanoate] | 3.95 µM and 4 µM | 1.67 | – | EC50 (HIV-1Laï; [4]): 0.211 µM; SI (CC50/EC50) (HIV-1Laï): 7.9; SI (CC50/EC50) (HIV-1Laï; listed as NSC149584): > 10.1
7 | COc1cc2c(cc1OC)c1c(OC)c(OC)cc3c1c1c2sc(=S)n1CC3 [Compound 3a] | 24 µM | – | > 5 | –
8 | COc1ccc2c(c1)CC1c3c(cc4c(c3-2)OCO4)CCN1C (stereo not shown) [Compound 3h] | > 100 µM | > 5 | – | –
9 | S=c1[nH]c2ccccc2nc1NCc1ccccc1 [Compound 3f] | 83 µM | – | > 5 | EC50 (HIV-1Laï): 2.37 µM; EC50 (HIV-1Laï; [4]): 2.4 µM; SI (CC50/EC50) (HIV-1Laï): >2.1
10 | CCCCCCCCCCCCCCCCCC(=O)OCC(=O)OCC(=O)C1(O)Cc2c(O)c3c(c(O)c2C(OC2CC(N)C(O)C(C)O2)C1)C(=O)c1c(OC)cccc1C3=O (stereo not shown) [Compound 1m] | 20.6 µM | – | > 5 | –
11 | COc1ccc2c(c1OC)-c1c3c(cc4c1C(C2)N(C)CC4)OCO3 (stereo not shown) [Compound 3j] | > 100 µM | – | – | CC50 at 24 h [1]: > 5 µM
12 | COc1cc2c(cc1OC)-c1c3c(cc4c1C(C2)N(C)CC4)OCO3 (stereo not shown) [Compound 3g] | 92 µM | – | – | viral replication, maximum, relative to DMSO control (HIV-1Laï; dose-dependent increase (pro-viral effect)): up to 150%
13 | CCOC(=O)N1CCc2cc(OC)c(OC)c3c2c1cc1cc(OC)c(OC)cc13 [Compound 3d] | 71 µM | – | > 5 | effect on HIV replication, in words (HIV-1Laï): decrease in viral replication; EC50 (HIV-1Laï): 1.02 µM; EC50 (HIV-1Laï; [4]): 1 µM; SI (CC50/EC50) (HIV-1Laï): >4.9
14 | Clc1ccc2nc3ccccc3cc2c1 [Compound 2n] | > 100 µM | – | > 5 | –
15 | COc1cccc2c1C(=O)c1c(O)c3c(c(O)c1C2=O)CC(O)(C(C)=O)CC3OC1CC(N(C)C)C(O)C(C)O1 (stereo not shown) [Compound 1o] | 43.7 µM | – | – | CC50 at 24 h [1]: 0.256 µM
16 | COc1cc2c3c(c1O)C1(C=CC(=O)C=C1)CC3N(C)CC2 (stereo not shown) [Compound 3l] | > 100 µM | – | > 5 | –
17 | O=C1CC(c2ccc(O)c(-c3c(O)cc4c(c3O)C(=O)CC(c3ccc(O)cc3)O4)c2)Oc2cc(O)cc(O)c21 (stereo not shown) [Compound 2c] | > 100 µM | – | > 5 | –
18 | CCC1(O)CC(OC2CC(N(C)C)C(O)C(C)O2)c2c(O)c3c(c(O)c2C1OC1CC(N(C)C)C(O)C(C)O1)C(=O)c1cccc(O)c1C3=O (stereo not shown) [Compound 1e] | – | 0.724 | – | IN-GCN2 interaction (%) [2]: 17.07%
19 | NC(CS)C(=O)NCCNc1ccc(NCCNC(=O)C(N)CS)c2c1C(=O)c1c(O)ccc(O)c1C2=O (stereo not shown) [Compound 2f] | 6.4 µM | – | 3.48 | –
20 | CCC1(O)CC(OC2CC(N(C)C)C(O)C(C)O2)c2c(cc3c(c2O)C(=O)c2c(O)ccc(O)c2C3=O)C1C(=O)OC (stereo not shown) [Compound 1c] | 1.4 µM | 0.589 | – | –
21 | COC(=O)[C@@H]1c2cc3c(c(O)c2[C@@H](O[C@@H]2O[C@@H](C)[C@H](OC)[C@@](C)(OC)[C@H]2OC)C[C@]1(C)O)C(=O)c1c(O)cc2c(c1C3=O)O[C@@H]1O[C@@]2(C)[C@H](O)[C@@H](N(C)C)[C@@H]1O [Compound 1j] | 8.88 µM | – | – | CC50 at 24 h [1]: 0.311 µM
22 | COc1cc2c(cc1OC)-c1c(OC)c(OC)cc3c1C(C2)N(C)CC3 (stereo not shown) [Compound 3k] | > 100 µM | > 5 | – | effect on IN-GCN2 interaction in dose-response, in words ([2]; dose-response assessment): inactive; IN-GCN2 interaction (%) [2]: 124.35%
23 | COc1cc2ccc3c(c2cc1OC)N(C)C(OC)c1cc2c(cc1-3)OCO2 (stereo not shown) [Compound 3m] | > 100 µM | > 5 | – | –
24 | CCC1(O)CC(OC2CC(N)C(O)C(C)O2)c2c(O)c3c(c(O)c2C1C(=O)OC)C(=O)c1cccc(O)c1C3=O (stereo not shown) [Compound 1b] | 0.917 µM | > 5 | – | –
